Series [1] in a line: Guest molecule concentration after incubation in initial medium without polymer (Comparative Example 1). It is filed as physicochemical. The settings on record: 37° C. An outline of the steps:
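Dissolved guest content measured by HPLC of centrifuged supernatants (37° C., 13000 rpm, 5 min) sampled at 0.5 h, 3 h and 6 h. Incubation was polymer-free at 37° C.±0.5° C. in buffers of pH 2.0-7.4; nominal loading was set by maximum clinical dose.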

Series [2] is described as follows: Binary supramolecular self-assembly systems of polymer and target: guest concentration over incubation time (Comparative Example 2). It is filed as physicochemical. How it is done:
Experiments were conducted according to the steps in Comparative Example 1, and quantitative analysis was carried out using the analytical method for each target to investigate the regulation ability […] stacking.

The conditions of series [3]: cited from earlier work.
The mark [4] stands for this setting: binary system with 0.5% polymer 101, incubation 0.5 h.
Setting [5] is: binary system with 0.5% polymer 101, incubation 3 h.
[6] abbreviates: binary system with 0.5% polymer 101, incubation 6 h.
Setting [7] is: binary system with 0.5% polymer 102, incubation 0.5 h.
The mark [8] stands for this setting: binary system with 0.5% polymer 102, incubation 3 h.
[9] abbreviates: binary system with 0.5% polymer 102, incubation 6 h.
Setting [10] is: binary system with 0.5% polymer 103, incubation 0.5 h.
The mark [11] stands for this setting: binary system with 0.5% polymer 103, incubation 3 h.
The mark [12] stands for this setting: binary system with 0.5% polymer 103, incubation 6 h.
Setting [13] is: binary system with 0.5% polymer 106, incubation 0.5 h.
Where [14] appears, read: binary system with 0.5% polymer 106, incubation 3 h.
[15] abbreviates: binary system with 0.5% polymer 106, incubation 6 h.
The mark [16] stands for this setting: binary system with 0.5% polymer 107, incubation 0.5 h.
The mark [17] stands for this setting: binary system with 0.5% polymer 107, incubation 3 h.
Where [18] appears, read: binary system with 0.5% polymer 107, incubation 6 h.
The mark [19] stands for this setting: binary system with 0.5% polymer 110, incubation 0.5 h.
The mark [20] stands for this setting: binary system with 0.5% polymer 110, incubation 3 h.
The mark [21] stands for this setting: binary system with 0.5% polymer 110, incubation 6 h.

This is an account of results in patent US20250339399A1, “SUPRAMOLECULAR SELF-ASSEMBLY SYSTEM” (Beijing Creatron Institute of Pharmaceutical Research Co., …, priority 2022, published 2025).

In the case of `CCc1cc2c(cc1N1CCC(N3CCOCC3)CC1)C(C)(C)c1[nH]c3cc(C#N)ccc3c1C2=O` [Alectinib, alectinib], the “Concentration of guest molecule measured after different incubated time” value (“Concentration … after different incubated time” for short) in series [1] (0.5 h, pH 6.8 phosphate buffer) came to 2500 ng/mL; in series [1] (3 h, pH 6.8 phosphate buffer), 10200 ng/mL; in series [1] (6 h, pH 6.8 phosphate buffer) it was 2200 ng/mL. Moreover, the “Concentration of the target in the solution measured after different incubation time” value (shortened to “Concentration … after different incubation time”) amounted to 45800 ng/mL in series [2] (setting [4]); 31000 ng/mL in series [2] (setting [5]); 9400 ng/mL in series [2] (setting [6]); 51500 ng/mL in series [2] (setting [7]); 47500 ng/mL in series [2] (setting [8]); 45900 ng/mL in series [2] (setting [9]). The “Concentration … after different incubation time” value in series [2] (setting [10]) was found to be 1000 ng/mL; in series [2] (setting [11]), 900 ng/mL; in series [2] (setting [12]) it was 1300 ng/mL; in series [2] (setting [13]) it was 1400 ng/mL; in series [2] (setting [14]) it was 2100 ng/mL; in series [2] (setting [15]), 1900 ng/mL. The “Concentration … after different incubation time” value in series [2] (setting [16]) is 1500 ng/mL; in series [2] (setting [17]), 800 ng/mL; in series [2] (setting [18]), 2900 ng/mL; in series [2] (setting [19]) it was 1900 ng/mL; in series [2] (setting [20]), 1600 ng/mL; in series [2] (setting [21]), 1300 ng/mL. In series [3], the “LogD7.4 or Log P” value is 4.75.

For `CC(C)OC(=O)CCC/C=C\C[C@@H]1[C@@H](/C=C/C(F)(F)COc2ccccc2)[C@H](O)C[C@@H]1O` [Tafluprost, tafluprost], the “Concentration … after different incubated time” value in series [1] (0.5 h, pH 7.4 phosphate buffer) came out at 18600 ng/mL; in series [1] (3 h, pH 7.4 phosphate buffer), 9300 ng/mL; in series [1] (6 h, pH 7.4 phosphate buffer) it was 6800 ng/mL. The “Concentration … after different incubation time” value in series [2] (setting [4]) amounted to 57600 ng/mL; in series [2] (setting [5]) it was 44800 ng/mL; in series [2] (setting [6]), 23100 ng/mL; in series [2] (setting [7]) it was 52900 ng/mL; in series [2] (setting [8]) it was 66100 ng/mL; in series [2] (setting [9]), 67300 ng/mL. The “Concentration … after different incubation time” value in series [2] (setting [10]) was 14600 ng/mL; in series [2] (setting [11]) it was 23100 ng/mL; in series [2] (setting [12]), 27400 ng/mL; in series [2] (binary system with 0.5% polymer 104, incubation 0.5 h), 26700 ng/mL; in series [2] (binary system with 0.5% polymer 104, incubation 3 h), 24200 ng/mL; in series [2] (binary system with 0.5% polymer 104, incubation 6 h) it was 17300 ng/mL. The “Concentration … after different incubation time” value in series [2] (setting [16]) was 34500 ng/mL; in series [2] (setting [17]), 36800 ng/mL; in series [2] (setting [18]) it was 35200 ng/mL. Also, the “Concentration of guest molecule in solution” value in series [2] (binary: 0.25% 102H, 6 h) was 67300 ng/mL. Further, the “LogD7.4 or Log P” value in series [3] is listed as 4.25. Further, the “Log P” value in series [3] (prost derivatives, Table 31 (relevant information)) is on record as “Log P:4.29 D-H: 2 R-H:4”.

As for `CC#CC(=O)N1CCC[C@H]1c1nc(-c2ccc(C(=O)Nc3ccccn3)cc2)c2c(N)nccn12` [Acalabrutinib, acalabrutinib], the “Concentration … after different incubated time” value in series [1] (0.5 h, pH 7.4 phosphate buffer) was determined as 106000 ng/mL; in series [1] (3 h, pH 7.4 phosphate buffer), 87600 ng/mL; in series [1] (6 h, pH 7.4 phosphate buffer) it was 87600 ng/mL. Moreover, the “Concentration … after different incubation time” value in series [2] (setting [4]) was determined as 209100 ng/mL; in series [2] (setting [5]) it was 193900 ng/mL; in series [2] (setting [6]) it was 197800 ng/mL; in series [2] (setting [7]), 566600 ng/mL; in series [2] (setting [8]), 580900 ng/mL; in series [2] (setting [9]), 608200 ng/mL. Besides, the “Concentration … after different incubation time” value in series [2] (setting [10]) stood at 292100 ng/mL; in series [2] (setting [11]) it was 321400 ng/mL; in series [2] (setting [12]), 246400 ng/mL; in series [2] (setting [13]), 184100 ng/mL; in series [2] (setting [14]), 124300 ng/mL; in series [2] (setting [15]), 159400 ng/mL. The “Concentration … after different incubation time” value in series [2] (setting [16]) came out at 497800 ng/mL; in series [2] (setting [17]) it was 171600 ng/mL; in series [2] (setting [18]), 167100 ng/mL; in series [2] (setting [19]), 427600 ng/mL; in series [2] (setting [20]), 429700 ng/mL; in series [2] (setting [21]), 460800 ng/mL. Further, in series [3], the “LogD7.4 or Log P” value is 2.56.

On to `O=C(O)[C@H]1O[C@@H](Oc2cc3oc(-c4ccc(O)cc4)cc(=O)c3c(O)c2O)[C@H](O)[C@@H](O)[C@@H]1O` [Scutellarin, scutellarin], for which the “Concentration … after different incubated time” value in series [1] (0.5 h, pH 6.8 phosphate buffer) came out at 45300 ng/mL; in series [1] (3 h, pH 6.8 phosphate buffer), 41700 ng/mL; in series [1] (6 h, pH 6.8 phosphate buffer) it was 43100 ng/mL. Also, the “Concentration … after different incubation time” value in series [2] (setting [4]) turned out to be 210400 ng/mL; in series [2] (setting [5]), 125200 ng/mL; in series [2] (setting [6]) it was 110200 ng/mL; in series [2] (setting [7]), 122500 ng/mL; in series [2] (setting [8]) it was 102000 ng/mL; in series [2] (setting [9]), 102200 ng/mL. For the same compound, the “Concentration … after different incubation time” value was 40400 ng/mL in series [2] (setting [10]); 42800 ng/mL in series [2] (setting [11]); 42800 ng/mL in series [2] (setting [12]); 57400 ng/mL in series [2] (setting [13]); 60800 ng/mL in series [2] (setting [14]); 54300 ng/mL in series [2] (setting [15]). Further, the “Concentration … after different incubation time” value in series [2] (setting [16]) was found to be 61700 ng/mL; in series [2] (setting [17]), 41700 ng/mL; in series [2] (setting [18]) it was 43100 ng/mL; in series [2] (setting [19]), 95900 ng/mL; in series [2] (setting [20]), 87300 ng/mL; in series [2] (setting [21]), 78300 ng/mL. The “LogD7.4 or Log P” value in series [3] was 0.80.
